Starred links: 1 amine or outer side, 2 acyl side, 3 side chain; linkers in the order of their positions; H or OH if unused. Non-standard residues stand in square brackets, D forms with d. Residues, ends and D or L forms follow the SMILES beside them. Groups on a side chain read outwards from the residue. *: point of attachment. C20 diacid = O=C(O)CCCCCCCCCCCCCCCCCCC(=O)*; γGlu = O=C(O)[C@H](CCC(=O)[*:2])N[*:1]; NMeI = CC[C@H](C)[C@H](NC)C(=O)O; Nle = CCCC[C@H](N)C(=O)O; AEEA = NCCOCCOCC(=O)O; Aib = CC(C)(N)C(=O)O
Key:
hCRHR2b = target: T1, hCRHR2b (Homo sapiens, UniProt Q13324); assay: cAMP potency, transiently transfected CHO-K1 cells, hCRHR2b; assay type: cell-based; conditions: transiently transfected CHO-K1, average n=3; read-out: Transient cell system EC50 (nM) hCRHR 2b
T1 construct: DYK (FLAG); host or cells: CHO-K1, transiently transfected
T1 sequence (Q13324 1-438 isoform Q13324-2): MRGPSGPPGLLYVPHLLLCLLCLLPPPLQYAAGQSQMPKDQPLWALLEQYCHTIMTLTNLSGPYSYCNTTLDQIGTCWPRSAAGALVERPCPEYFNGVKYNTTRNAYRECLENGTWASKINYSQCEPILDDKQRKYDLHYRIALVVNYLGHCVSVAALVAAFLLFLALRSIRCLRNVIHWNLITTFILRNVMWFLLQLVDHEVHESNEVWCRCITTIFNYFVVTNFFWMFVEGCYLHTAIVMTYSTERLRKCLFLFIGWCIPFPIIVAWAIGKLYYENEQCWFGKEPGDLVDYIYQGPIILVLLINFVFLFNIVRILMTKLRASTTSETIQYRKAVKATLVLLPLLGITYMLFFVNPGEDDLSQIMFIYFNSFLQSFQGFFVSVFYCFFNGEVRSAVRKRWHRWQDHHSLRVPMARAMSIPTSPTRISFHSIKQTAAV

hCRHR2a = target: T2, hCRHR2a (Homo sapiens, UniProt Q13324); assay: cAMP potency, transiently transfected CHO-K1 cells, hCRHR2a; assay type: cell-based; conditions: transiently transfected CHO-K1, average n=3; read-out: Transient cell system EC50 (nM) hCRHR 2a
T2 construct: DYK (FLAG); host or cells: CHO-K1, transiently transfected
T2 sequence (Q13324 1-411): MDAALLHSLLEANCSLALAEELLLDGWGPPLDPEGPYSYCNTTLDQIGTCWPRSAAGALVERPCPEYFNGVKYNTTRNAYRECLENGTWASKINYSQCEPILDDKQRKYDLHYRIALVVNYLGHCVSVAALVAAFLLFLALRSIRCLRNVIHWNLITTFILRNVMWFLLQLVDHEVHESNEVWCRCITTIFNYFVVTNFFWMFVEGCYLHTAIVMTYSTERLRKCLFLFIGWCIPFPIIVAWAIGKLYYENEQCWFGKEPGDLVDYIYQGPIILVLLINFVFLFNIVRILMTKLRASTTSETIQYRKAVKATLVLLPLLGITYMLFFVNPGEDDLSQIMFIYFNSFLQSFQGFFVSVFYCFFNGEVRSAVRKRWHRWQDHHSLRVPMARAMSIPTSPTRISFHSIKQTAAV

pCRHR1 = assay: cAMP potency, transiently transfected CHO-K1 cells, pCRHR1; assay type: cell-based, pig; conditions: transiently transfected CHO-K1, average n=3; read-out: Transient cell system EC50 (nM) pCRHR 1
Method: (§1) Selected peptides were tested for potency on different species (mouse, rat, porcine) using transiently transfected CHO-K1 cells using the general procedure.

pCRHR2 = assay: cAMP potency, transiently transfected CHO-K1 cells, pCRHR2; assay type: cell-based, pig; conditions: transiently transfected CHO-K1, average n=3; read-out: Transient cell system EC50 (nM) pCR HR2
Method: as §1

mCRHR2 = target: T3, mCRHR2 (Mus musculus, UniProt Q60748); assay: cAMP potency, transiently transfected CHO-K1 cells, mCRHR2; assay type: cell-based; conditions: transiently transfected CHO-K1, average n=3; read-out: Transient cell system EC50 (nM) mCRH R2
T3 construct: DYK (FLAG); host or cells: CHO-K1, transiently transfected
T3 sequence (Q60748 1-431 isoform Q60748-2): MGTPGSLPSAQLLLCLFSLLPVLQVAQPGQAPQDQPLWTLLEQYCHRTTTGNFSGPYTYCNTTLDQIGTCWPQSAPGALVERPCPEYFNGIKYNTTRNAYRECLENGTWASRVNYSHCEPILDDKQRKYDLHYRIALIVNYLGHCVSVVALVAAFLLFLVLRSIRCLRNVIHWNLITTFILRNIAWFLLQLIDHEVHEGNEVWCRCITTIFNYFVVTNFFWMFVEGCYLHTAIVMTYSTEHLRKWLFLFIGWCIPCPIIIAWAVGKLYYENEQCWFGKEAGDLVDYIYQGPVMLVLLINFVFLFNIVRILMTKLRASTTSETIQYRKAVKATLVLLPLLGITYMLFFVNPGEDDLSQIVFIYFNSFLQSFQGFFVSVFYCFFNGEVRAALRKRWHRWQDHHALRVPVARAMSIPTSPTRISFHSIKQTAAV
Method: as §1

rCRHR2 = target: T4, rCRHR2 (Rattus norvegicus, UniProt P47866); assay: cAMP potency, transiently transfected CHO-K1 cells, rCRHR2; assay type: cell-based; conditions: transiently transfected CHO-K1, average n=3; read-out: Transient cell system EC50 (nM) rCRHR 2
T4 construct: DYK (FLAG); host or cells: CHO-K1, transiently transfected
T4 sequence (P47866 whole entry): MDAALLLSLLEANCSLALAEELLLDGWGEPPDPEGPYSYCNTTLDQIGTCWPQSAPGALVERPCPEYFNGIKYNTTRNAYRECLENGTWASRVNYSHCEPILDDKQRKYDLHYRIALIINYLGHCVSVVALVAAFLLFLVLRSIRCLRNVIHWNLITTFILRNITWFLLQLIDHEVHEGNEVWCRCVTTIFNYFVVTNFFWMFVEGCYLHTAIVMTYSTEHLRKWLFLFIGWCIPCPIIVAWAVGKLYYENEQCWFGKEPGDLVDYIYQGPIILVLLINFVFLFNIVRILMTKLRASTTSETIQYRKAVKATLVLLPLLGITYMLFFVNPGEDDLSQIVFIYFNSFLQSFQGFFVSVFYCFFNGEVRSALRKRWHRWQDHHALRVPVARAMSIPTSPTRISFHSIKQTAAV
Method: as §1

Compound | EC50 (hCRHR2b) [nM] | EC50 (hCRHR2a) [nM] | EC50 (pCRHR1) [nM] | EC50 (pCRHR2) [nM] | EC50 (mCRHR2) [nM] | EC50 (rCRHR2) [nM]
CC[C@H](C)[C@H](NC)C(=O)N[C@H](C(=O)N[C@@H](CC(C)C)C(=O)N[C@@H](CO)C(=O)N[C@@H](CC(C)C)C(=O)N[C@@H](CC(=O)O)C(=O)N[C@H](C(=O)N1CCC[C@H]1C(=O)N[C@H](C(=O)NCC(=O)N[C@@H](CC(C)C)C(=O)N[C@@H](CC(C)C)C(=O)N[C@@H](CCC(N)=O)C(=O)N[C@H](C(=O)N[C@@H](CC(C)C)C(=O)N[C@@H](CC(C)C)C(=O)N[C@@H](CCC(=O)O)C(=O)N[C@@H](CCC(N)=O)C(=O)N[C@@H](C)C(=O)N[C@@H](CCCNC(=N)N)C(=O)N[C@@H](C)C(=O)N[C@@H](CCCNC(=N)N)C(=O)N[C@@H](C)C(=O)N[C@@H](C)C(=O)N[C@@H](CCCNC(=N)N)C(=O)N[C@@H](CCC(=O)O)C(=O)N[C@@H](CCC(N)=O)C(=O)N[C@@H](C)C(=O)N[C@H](C(=O)N[C@@H](CCCCNC(=O)COCCOCCNC(=O)COCCOCCNC(=O)CC[C@H](NC(=O)CC[C@H](NC(=O)CCCCCCCCCCCCCCCCCCC(=O)O)C(=O)O)C(=O)O)C(=O)N[C@@H](CC(N)=O)C(=O)N[C@@H](C)C(=O)N[C@@H](CCC(=O)O)C(=O)N[C@H](C(=O)N[C@@H](CC(C)C)C(=O)N[C@@H](C)C(=O)N[C@@H](CCC(=O)O)C(=O)N[C@H](C(N)=O)C(C)C)[C@@H](C)CC)[C@@H](C)O)[C@@H](C)CC)[C@@H](C)CC)C(C)C)C(C)C [SEQ ID NO: 6] (H-[NMeI]VLSLDVPIGLLQILLEQARARAAREQATK([AEEA-AEEA-γGlu-γGlu-C20 diacid])NAEILAEV-NH2) | 0.015 | 0.023 | > 5000 | 0.03 | 0.0043 | 0.13
CCCC[C@H](NC(=O)[C@@H](NC(=O)[C@H](CCC(=O)O)NC(=O)[C@H](C)NC(=O)[C@H](CC(N)=O)NC(=O)C(C)(C)NC(=O)[C@H](CCCCNC(=O)COCCOCCNC(=O)COCCOCCNC(=O)CC[C@H](NC(=O)CC[C@H](NC(=O)CCCCCCCCCCCCCCCCCCC(=O)O)C(=O)O)C(=O)O)NC(=O)[C@H](C)NC(=O)[C@H](CCC(N)=O)NC(=O)[C@H](CCC(=O)O)NC(=O)[C@H](CCCNC(=N)N)NC(=O)[C@H](C)NC(=O)[C@H](C)NC(=O)[C@H](CCCNC(=N)N)NC(=O)[C@H](C)NC(=O)[C@H](CCCNC(=N)N)NC(=O)[C@H](C)NC(=O)[C@H](CCC(N)=O)NC(=O)[C@H](CO)NC(=O)[C@H](CC(C)C)NC(=O)[C@H](CC(C)C)NC(=O)[C@@H](NC(=O)[C@H](CCC(N)=O)NC(=O)[C@H](CC(C)C)NC(=O)[C@H](CC(C)C)NC(=O)CNC(=O)[C@@H](NC(=O)[C@@H]1CCCN1C(=O)[C@@H](NC(=O)[C@H](CC(=O)O)NC(=O)[C@H](CC(C)C)NC(=O)[C@H](CO)NC(=O)[C@H](CC(C)C)NC(=O)[C@@H](NC(=O)[C@@H]1CCCN1)C(C)C)C(C)C)[C@@H](C)CC)[C@@H](C)CC)[C@@H](C)CC)C(=O)N[C@@H](C)C(=O)N[C@@H](CCC(=O)O)C(=O)N[C@H](C(N)=O)C(C)C [SEQ ID NO: 238] (H-PVLSLDVPIGLLQILLSQARARAAREQAK([AEEA-AEEA-γGlu-γGlu-C20 diacid])[Aib]NAEI[Nle]AEV-NH2) | 0.016 | 0.018 | > 5000 | 0.015 | 0.0047 | 0.067
CC[C@H](C)[C@H](N)C(=O)N[C@H](C(=O)N[C@@H](CC(C)C)C(=O)N[C@@H](CO)C(=O)N[C@@H](CC(C)C)C(=O)N[C@@H](CC(=O)O)C(=O)N[C@H](C(=O)N1CCC[C@H]1C(=O)N[C@H](C(=O)NCC(=O)N[C@@H](CC(C)C)C(=O)N[C@@H](CC(C)C)C(=O)N[C@@H](CCC(N)=O)C(=O)N[C@H](C(=O)N[C@@H](CC(C)C)C(=O)N[C@@H](CC(C)C)C(=O)N[C@@H](CCC(=O)O)C(=O)N[C@@H](CCC(N)=O)C(=O)N[C@@H](C)C(=O)N[C@@H](CCCNC(=N)N)C(=O)N[C@@H](C)C(=O)N[C@@H](CCCNC(=N)N)C(=O)N[C@@H](C)C(=O)N[C@@H](C)C(=O)N[C@@H](CCCNC(=N)N)C(=O)N[C@@H](CCC(=O)O)C(=O)N[C@@H](CCC(N)=O)C(=O)N[C@@H](C)C(=O)N[C@@H](CCCCNC(=O)COCCOCCNC(=O)COCCOCCNC(=O)CC[C@H](NC(=O)CC[C@H](NC(=O)CCCCCCCCCCCCCCCCCCC(=O)O)C(=O)O)C(=O)O)C(=O)N[C@H](C(=O)N[C@@H](CC(N)=O)C(=O)N[C@@H](C)C(=O)N[C@@H](CCC(=O)O)C(=O)N[C@H](C(=O)N[C@@H](CC(C)C)C(=O)N[C@@H](C)C(=O)N[C@@H](CCC(=O)O)C(=O)N[C@H](C(N)=O)C(C)C)[C@@H](C)CC)[C@@H](C)O)[C@@H](C)CC)[C@@H](C)CC)C(C)C)C(C)C [SEQ ID NO: 3] (H-IVLSLDVPIGLLQILLEQARARAAREQAK([AEEA-AEEA-γGlu-γGlu-C20 diacid])TNAEILAEV-NH2) | 0.0081 | 0.016 | > 5000 | 0.027 | 0.0054 | 0.07
CC[C@H](C)[C@H](NC)C(=O)N[C@H](C(=O)N[C@@H](CC(C)C)C(=O)N[C@@H](CO)C(=O)N[C@@H](CC(C)C)C(=O)N[C@@H](CC(=O)O)C(=O)N[C@H](C(=O)N1CCC[C@H]1C(=O)N[C@H](C(=O)NCC(=O)N[C@@H](CC(C)C)C(=O)N[C@@H](CC(C)C)C(=O)N[C@@H](CCC(N)=O)C(=O)N[C@H](C(=O)N[C@@H](CC(C)C)C(=O)N[C@@H](CC(C)C)C(=O)N[C@@H](CCC(=O)O)C(=O)N[C@@H](CCC(N)=O)C(=O)N[C@@H](C)C(=O)N[C@@H](CCCNC(=N)N)C(=O)N[C@@H](C)C(=O)N[C@@H](CCCNC(=N)N)C(=O)N[C@@H](C)C(=O)N[C@@H](C)C(=O)N[C@@H](CCCNC(=N)N)C(=O)N[C@@H](CCC(=O)O)C(=O)N[C@@H](CCC(N)=O)C(=O)N[C@@H](C)C(=O)N[C@@H](CCCCNC(=O)COCCOCCNC(=O)COCCOCCNC(=O)CC[C@H](NC(=O)CC[C@H](NC(=O)CCCCCCCCCCCCCCCCCCC(=O)O)C(=O)O)C(=O)O)C(=O)N[C@H](C(=O)N[C@@H](CC(N)=O)C(=O)NC(C)(C)C(=O)N[C@@H](CCC(=O)O)C(=O)N[C@H](C(=O)N[C@@H](CC(C)C)C(=O)N[C@@H](C)C(=O)N[C@@H](CCC(=O)O)C(=O)N[C@H](C(N)=O)C(C)C)[C@@H](C)CC)[C@@H](C)O)[C@@H](C)CC)[C@@H](C)CC)C(C)C)C(C)C [SEQ ID NO: 16] (H-[NMeI]VLSLDVPIGLLQILLEQARARAAREQAK([AEEA-AEEA-γGlu-γGlu-C20 diacid])TN[Aib]EILAEV-NH2) | 0.012 | 0.025 | > 5000 | 0.028 | 0.0049 | 0.19
CCCC[C@H](NC(=O)[C@@H](NC(=O)[C@H](CCC(=O)O)NC(=O)C(C)(C)NC(=O)[C@H](CC(N)=O)NC(=O)[C@@H](NC(=O)[C@H](CCCCNC(=O)COCCOCCNC(=O)COCCOCCNC(=O)CC[C@H](NC(=O)CC[C@H](NC(=O)CCCCCCCCCCCCCCCCCCC(=O)O)C(=O)O)C(=O)O)NC(=O)[C@H](C)NC(=O)[C@H](CCC(N)=O)NC(=O)[C@H](CCC(=O)O)NC(=O)[C@H](CCCNC(=N)N)NC(=O)[C@H](C)NC(=O)[C@H](C)NC(=O)[C@H](CCCNC(=N)N)NC(=O)[C@H](C)NC(=O)[C@H](CCCNC(=N)N)NC(=O)[C@H](C)NC(=O)[C@H](CCC(N)=O)NC(=O)[C@H](CO)NC(=O)[C@H](CC(C)C)NC(=O)[C@H](CC(C)C)NC(=O)[C@@H](NC(=O)[C@H](CCC(N)=O)NC(=O)[C@H](CC(C)C)NC(=O)[C@H](CC(C)C)NC(=O)CNC(=O)[C@@H](NC(=O)[C@@H]1CCCN1C(=O)[C@@H](NC(=O)[C@H](CC(=O)O)NC(=O)[C@H](CC(C)C)NC(=O)[C@H](CO)NC(=O)[C@H](CC(C)C)NC(=O)[C@@H](NC(=O)[C@@H](NC)[C@@H](C)CC)C(C)C)C(C)C)[C@@H](C)CC)[C@@H](C)CC)[C@@H](C)O)[C@@H](C)CC)C(=O)N[C@@H](C)C(=O)N[C@@H](CCC(=O)O)C(=O)N[C@H](C(N)=O)C(C)C [SEQ ID NO: 215] (H-[NMeI]VLSLDVPIGLLQILLSQARARAAREQAK([AEEA-AEEA-γGlu-γGlu-C20 diacid])TN[Aib]EI[Nle]AEV-NH2) | 0.016 | 0.013 | > 1000 | 0.017 | 0.004 | 0.072

— EP4810052A2, “HCRHR2 SELECTIVE POLYPEPTIDES” (Gubra A/S, priority 2023, dated 2026)
